≈ marks a conversion by molar mass, not a printed value.

This note sets out measurements from ChEMBL document CHEMBL1158794, “A cytotoxic xanthone dimer from the entomopathogenic fungus Aschersonia sp. BCC 8401” (J Nat Prod, 2005).

The subject of assay [1] is NCI-H187. In words: Cytotoxicity against human NCI-H187 cells by SRB assay. The format is functional, cell-based. (Sulforhodamine B stains cellular protein and so reports cell mass.)
For assay [2], the system named is KB. In words: Cytotoxicity against human KB cells by SRB assay. The format is functional, cell-based.
The test system of assay [3] is Plasmodium falciparum. The experiment in a line: Antiplasmodial activity against multidrug-resistant Plasmodium falciparum K1 by [3H]hypoxanthine uptake. The assay is classed as functional, organism-based.
Assay [4] deals with Vero. The experiment in a line: Cytotoxicity against african green monkey Vero cells by SRB assay. The assay is classed as cell-based. The following applies: Chlorocebus sabaeus.
The nature of assay [5]: Cytotoxicity against human BC cells by SRB assay. The assay is classed as functional, cell-based.

For orientation: IC50 means the point on the concentration scale where inhibition reaches its midpoint. Take `CO[C@H]1CC=C2C(=O)c3c(cc(C)c(-c4c(C)cc5c(c4O)C(=O)C4=CC[C@H](OC)[C@@H](O)[C@]4(C)O5)c3O)O[C@@]2(C)[C@@H]1O` [ASCHERXANTHONE A]: the concentration for half-maximal inhibition (IC50) in assay [1] was determined as 0.16 µg/mL (≈ 0.277 µM); in assay [2], 1.7 µg/mL (≈ 2.94 µM); in assay [3], 0.2 µg/mL (≈ 0.346 µM); in assay [4], 0.8 µg/mL (≈ 1.38 µM); in assay [5], 1.7 µg/mL (≈ 2.94 µM).
